{
  "source": "patent US20100190827A1",
  "about": "“POLYMORPHIC FORM OF RIMONABANT, METHOD FOR PREPARING IT AND PHARMACEUTICAL COMPOSITIONS CONTAINING IT” (SANOFI-AVENTIS, priority 2001, published 2010)",
  "assay": "Solubility of the crystalline forms in methylcyclohexane (Mullin method)",
  "type": "physicochemical",
  "conditions": "for solubility: methylcyclohexane, organic solvent or mixture, thermodynamic from solid, read-out: Solubility Concentration; for solubility / Solubility Concentration: at equilibrium; for Thermodynamic stability compared with form I: inferred from the lower solubility in methylcyclohexane, 10 °C to 70 °C",
  "protocol": "The solubility of the 2 crystalline forms of rimonabant in the same solvent was also measured. The method used is described in Measurement of Solubility in J. W. Mullin. Crystallization: 3rd edition, Ipswich (GB): Butterworth-Heinemann, 1993, p. 105.\nThe measurements were carried out for each of the crystalline forms, in solution in methylcyclohexane at temperatures varying from 10° C. to 70° C. At equilibrium, for each temperature, the undissolved crystalline form is characterized by infrared spectrography, in particular by its main bands.",
  "note": "Like-named read-outs stand apart in the source and are kept apart here.",
  "data": [
    {"smiles": "Cc1c(C(=O)NN2CCCCC2)nn(-c2ccc(Cl)cc2Cl)c1-c1ccc(Cl)cc1", "note": "[Form I, N-Piperidino-5-(4-chlorophenyl)-1-(2,4-dichlorophenyl)-4-methyl-3-pyrazolecarboxamide, reference compound]", "values": [
      {"measurement": "solubility", "setting": "10 °C, in methylcyclohexane, 10.00 °C", "result": 4.86, "unit": "mg/mL"},
      {"measurement": "solubility", "setting": "20 °C, in methylcyclohexane, 20.00 °C", "result": 6.92, "unit": "mg/mL"},
      {"measurement": "solubility", "setting": "30 °C, in methylcyclohexane, 30.00 °C", "result": 9.3, "unit": "mg/mL"},
      {"measurement": "solubility", "setting": "40 °C, in methylcyclohexane, 40.00 °C", "result": 13.7, "unit": "mg/mL"},
      {"measurement": "solubility", "setting": "50 °C, in methylcyclohexane, 50.00 °C", "result": 20.4, "unit": "mg/mL"},
      {"measurement": "solubility", "setting": "60 °C, in methylcyclohexane, 60.00 °C", "result": 31.2, "unit": "mg/mL"},
      {"measurement": "solubility", "setting": "70 °C, in methylcyclohexane, 70.00 °C", "result": 52.4, "unit": "mg/mL"}
    ]},
    {"smiles": "Cc1c(C(=O)NN2CCCCC2)nn(-c2ccc(Cl)cc2Cl)c1-c1ccc(Cl)cc1", "note": "[Form II, N-piperidino-5-(4-chlorophenyl)-1-(2,4-dichlorophenyl)-4-methyl-3-pyrazolecarboxamide]", "values": [
      {"measurement": "Solubility Concentration", "setting": "in methylcyclohexane, 10.00 °C", "result": 4.50, "unit": "mg/mL"},
      {"measurement": "Solubility Concentration", "setting": "in methylcyclohexane, 20.00 °C", "result": 6.60, "unit": "mg/mL"},
      {"measurement": "Solubility Concentration", "setting": "in methylcyclohexane, 30.00 °C", "result": 9.20, "unit": "mg/mL"},
      {"measurement": "Solubility Concentration", "setting": "in methylcyclohexane, 40.00 °C", "result": 12.60, "unit": "mg/mL"},
      {"measurement": "Solubility Concentration", "setting": "in methylcyclohexane, 50.00 °C", "result": 19.00, "unit": "mg/mL"},
      {"measurement": "Solubility Concentration", "setting": "in methylcyclohexane, 60.00 °C", "result": 29.20, "unit": "mg/mL"},
      {"measurement": "Solubility Concentration", "setting": "in methylcyclohexane, 70.00 °C", "result": 42.00, "unit": "mg/mL"},
      {"measurement": "Solubility compared with form I", "setting": "in methylcyclohexane, all temperatures between 10 °C and 70 °C", "result": "less soluble"},
      {"measurement": "Thermodynamic stability compared with form I", "setting": "listed as crystalline form II of rimonabant", "result": "stability greater than that of form I"},
      {"measurement": "Thermodynamic stability compared with form I", "setting": "listed as rimonabant form II", "result": "thermodynamically more stable than rimonabant form I"}
    ]}
  ]
}
